Test results published in article PMC7845692 (Frontiers in Pharmacology, 2020).
Read-outs that look alike come from different tables or passages of the source.

How the values were obtained:
Human coronavirus OC43 = test: HCoV-OC43 immunofluorescent assay (IFA) against N protein in HCT-8 cells; assay type: cell-based; settings: for EC50: read-out: Human coronavirus OC43 EC50 (IFA); for Human coronavirus OC43 Selectivity index: CC50/EC50, HCT-8 cells
in vitro [1] = settings: human
SARS-CoV-2 [2] = test: microbe, parasite or virus in culture; assay type: cell-based; settings: Severe acute respiratory syndrome coronavirus 2, Vero C1008; Vero E6 cells, 5–7 days, Figure 5B-b; read-out: SARS-CoV-2 plaque assay EC50
[3] = cell cytotoxicity by visualization (FIPV host cells); settings: cat
Procedure: (§2) The serotype II FIPV Taiwan isolate NTU156 strain, a kind gift from National Taiwan University, was propagated and titrated in Fcwf-4 cells ([Lin et al., 2009]). The EC50 for anti-FIPV activity and CC50 for cell cytotoxicity were determined as previously described ([Yang et al., 2020b]).

[4] = HCT-8 cell viability (MTS); settings: human
HCoV-OC43 = HCoV-OC43 viral yield, end point dilution assay / TCID50; assay type: cell-based, Human coronavirus OC43
[5] = test system: Feline infectious peritonitis virus; test: anti-FIPV activity, cytopathic effect by visualization in Fcwf-4 cells; settings: for EC50: Alphacoronavirus 1, read-out: Feline infectious peritonitis virus EC50 CPE/visualization
Procedure: as §2

HCoV-229E [6] = test: HCoV-229E viral yield, end point dilution assay / TCID50; settings: MRC-5, MOI 0.05
SARS-CoV-2 [7] = test: SARS-CoV-2 cytopathic effect by visualization in Vero E6 cells; assay type: cell-based; settings: Severe acute respiratory syndrome coronavirus 2, Vero C1008, read-out: SARS-CoV-2 EC50 CPE/visualization
Procedure: (§1) CPE was performed as described ([Wu et al., 2004]). For IFA, Vero E6 cells (BCRC number: 60476; derived from ATCC CRL-1586) were treated with each compound at the indicated concentration for 1 h at 37°C. The cells were adsorbed with SARS-CoV-2 (TCDC#4) (sequence available on the GISAID website) at an MOI = 0.01 for 1 h at 37°C. After virus adsorption, the cells were washed with PBS and fresh medium containing each compound at the indicated concentration was added. After 2 days, cells were fixed with 4% paraformaldehyde and permeabilized with 0.5% Triton X-100. The cells were stained with anti-SARS-CoV-2 N protein antibody, provided by Dr. An-Suei Yang of the Genomics Research Center, Academia Sinica, and goat anti-human IgG-Alexa Fluor 488 (A11013, Invitrogen) (in green). The nuclei were counter stained with DAPI (in blue) (D1306, Invitrogen). The N protein expression was measured using a high-content image analysis system (Molecular Devices). The cell viability was determined by Cell Counting Kit-8 (CCK-8) (Sigma-Aldrich, cat #96992). EC50 and CC50 values were calculated by Prism software.

[8] = Vero E6 cytotoxicity by visualization; assay type: cell-based; settings: African green monkey, Vero E6 cells; read-out: SARS-CoV-2 CC50 Visualization
Procedure: as §1

SARS-CoV-2 [9] = test: SARS-CoV-2 IFA against N protein in Vero E6 cells; assay type: cell-based
Procedure: as §1

Human coronavirus 229E = test: HCoV-229E cytopathic effect, crystal violet absorbance in MRC-5 cells; settings: CC50/EC50, MRC-5 cells
HCoV-229E [10] = test: HCoV-229E viral RNA (ORF1, ORF N) by semi-RT-qPCR in MRC-5 cells; assay type: cell-based, Human coronavirus 229E; settings: MRC-5, MOI 1, 30 h.p.i., 10–300 nM, dose dependent
Procedure: These experiments were performed as described ([Yang et al., 2007b]). Mock or HCoV-229E infected (MOI of 1) lysates were processed and prepared at 30 h.p.i. without or with compound treatment. The total RNA was extracted with TRIzol reagent (Invitrogen). The relative viral RNA expression levels were determined by semi-RT-qPCR, analyzed with the ImageJ Analyzer program (http://imagej.nih.gov/ij/index.html), and normalized with the housekeeping gene GAPDH. The primers used to amplify the PCR products were 5′-GGCGAGGTGGAATTTGTTTA-3′ and 5′-ACCTTTAAGCCACCATGTGC-3′ for ORF1; 5′-TCTGCCAAGAGTCTTGCTCG-3′ and 5′-AGCATAGCAGCTGTTGACGG-3′ for ORF N. The amplification of target cDNA was conducted under the following conditions: 25 cycles of 95°C for 30 s, 55°C for 20 s, and 72°C for 30 s for ORF N; 29 cycles of 95°C for 30 s, 55°C for 20 s, and 72°C for 30 s for ORF1, and 35 cycles of 95°C for 30 s, 55°C for 20 s, and 72°C for 30 s for GAPDH. The final PCR products were subjected to electrophoresis on 2% agarose gel containing ethidium bromide along with DNA markers.

in vitro [11] = settings: human, MRC-5 cells
[12] = Vero E6 cell viability (CCK-8); assay type: cell-based; settings: African green monkey, Vero E6 cells; read-out: SARS-CoV-2 CC50 CCK-8
Procedure: as §1

[13] = Betacoronavirus 1, OC43, HCT-8, 72 h
[14] = Betacoronavirus 1, OC43, HCT-8 cells, MOI 0.05, 72 h.p.i., means ± SD
[15] = HCT-8, MOI 0.05, reduction ∼2–3 orders of magnitude
[16] = at concentrations of up to 50 μM

| SMILES | EC50 (Human coronavirus OC43; [13]) [nM] | Human coronavirus OC43 Selectivity index (Human coronavirus OC43) | CC50 (in vitro [1]) [nM] | CC50 [3] [nM] | EC50 [5] [nM] | Feline infectious peritonitis virus Selectivity index ([5]; CC50/EC50, Fcwf-4 cells) | EC50 (Human coronavirus OC43; [14]) [nM] | other results |
| --- | --- | --- | --- | --- | --- | --- | --- | --- |
| CCC(CC)COC(=O)[C@H](C)N[P@](=O)(OC[C@H]1O[C@@](C#N)(c2ccc3c(N)ncnn23)[C@H](O)[C@@H]1O)Oc1ccccc1 [Remdesivir] | 947 ± 320 | >52.8 | > 50000 |  |  |  |  | EC50 (SARS-CoV-2 [2]): 647 ± 16.7 nM |
| C[C@]12CC[C@H](O)C[C@H]1CC[C@@H]1[C@@H]2CC[C@]2(C)[C@@H](c3ccc(=O)oc3)CC[C@]12O [Bufalin, bufalin, reference compound] | 56 ± 4 | 16.1 |  | 542 ± 213 | 19 ± 9 | 28.5 |  | CC50 at 72 h [4]: 900 ± 180 nM; concentration of maximum reduction of HCoV-OC43 viral yield (HCoV-OC43): 100 nM; maximum reduction of HCoV-OC43 viral yield (HCoV-OC43): 2–3 orders of magnitudes |
| N#C[C@@]1(c2ccc3c(N)ncnn23)O[C@H](CO)[C@@H](O)[C@H]1O [GS441524, GS-441524] | 6930 | >7.2 |  |  |  |  |  | CC50 at 72 h (in vitro [1]): > 50000 nM; EC50 (SARS-CoV-2 [2]): 860 ± 29.2 nM |
| COc1cc2c3c(c4cc(OC)c(OC)c(OC)c4c2cc1OC)CC1CCC[N+]1([O-])C3 (centres unmarked) [031p13-3] | 1890 ± 228 | >5.3 |  | > 50000 | 1560 | >32.1 |  | CC50 at 72 h ([4]; HCT-8 cells): > 10000 nM |
| C[C@H]1O[C@@H](O[C@H]2[C@@H](O)C[C@H](O[C@H]3[C@@H](O)C[C@H](O[C@H]4CC[C@@]5(C)[C@H](CC[C@@H]6[C@@H]5C[C@@H](O)[C@]5(C)[C@@H](C7=CC(=O)OC7)CC[C@]65O)C4)O[C@@H]3C)O[C@@H]2C)C[C@H](O)[C@@H]1O [Digoxin, digoxin] |  | 5.2 | 1400 ± 350 | 1190 ± 603 | 212 ± 96 |  | 269 ± 45 | Feline infectious peritonitis virus Selectivity index [5]: 5.6 |
| COc1cc2c3c(c4cc(OC)c(OC)cc4c2cc1OC)CN1CCCC1C3 (centres unmarked) [PI09] |  | >147 | > 10000 | 6380 ± 2250 | 62 ± 25 | 102.8 | 68 ± 3 | complete reduction of HCoV-229E viral yield (HCoV-229E [6]; at 100, 300 and 600 nM respectively (dbq33b, dbq33b4p7, PI09)): 6–7 log of magnitudes; concentration giving complete reduction of HCoV-229E viral yield (HCoV-229E [6]; reduction 6–7 log): 600 nM; EC50 (SARS-CoV-2 [7]): 78 nM; CC50 [8]: 5000 nM; SARS-CoV-2 Selectivity index (IFA/CCK-8) (SARS-CoV-2 [9]; CC50/EC50, Vero E6 cells): 46; EC50 (SARS-CoV-2 [9]; Severe acute respiratory syndrome coronavirus 2, Vero C1008, 48 h, read-out: SARS-CoV-2 EC50 IFA, Vero E6 cells, MOI 0.01, 2 d.p.i., N protein): 77 nM; EC50 (SARS-CoV-2 [9]; read-out: SARS-CoV-2 EC50 IFA, Vero E6 cells, MOI 0.01, 2 d.p.i., N protein): 76.8 nM; Human coronavirus 229E Selectivity index (Human coronavirus 229E): 93; complete reduction of HCoV-OC43 viral yield (HCoV-OC43): 7–8 log of magnitudes; concentration accomplishing complete reduction of HCoV-OC43 viral yield (HCoV-OC43; HCT-8, MOI 0.05, reduction ∼7–8 log): 300 nM; effect on HCoV-229E viral genome replication and subgenomic viral RNA syntheses (RT-PCR ORF1, ORF N) (HCoV-229E [10]): inhibited HCoV-229E viral genome replication and subgenomic viral RNA syntheses; CC50 (in vitro [11]): 6640 nM; CC50 [12]: 3550 nM |
| CO[C@H]1C[C@H](O[C@H]2CC[C@@]3(C)[C@H](CC[C@@H]4[C@@H]3CC[C@]3(C)[C@@H](C5=CC(=O)OC5)[C@@H](OC(C)=O)C[C@]43O)C2)O[C@@H](C)[C@@H]1O [Oleandrin, oleandrin] |  | 3.8 | 211 ± 62 | 2850 ± 1070 | 729 ± 244 | 3.9 | 56 ± 5 | maximum reduction of HCoV-OC43 viral yield (HCoV-OC43): 2–3 orders of magnitudes; concentration of maximum reduction of HCoV-OC43 viral yield (HCoV-OC43; [15]): 30 nM |
| COc1cc2c3c(c4cc(OC)c(OC)cc4c2cc1OC)CN1CCCCC1C3 (centres unmarked) [PQ09] | 52 ± 6 | >193 |  | 3090 ± 886 | 17 ± 6 | 182.0 |  | CC50 at 72 h ([4]; HCT-8 cells): > 10000 nM |
| C[C@]12CC[C@H](O)C[C@H]1CC[C@@H]1[C@@H]2CC[C@]2(C)[C@@H](C3=CC(=O)OC3)CC[C@]12O [Digitoxigenin, digitoxigenin] | 323 ± 20 | >7.7 |  | 3560 ± 375 | 458 ± 18 | 7.8 |  | CC50 at 72 h [4]: > 2500 nM |
| C[C@]12CC[C@H](O)C[C@H]1CC[C@@H]1[C@@H]2CC[C@]2(C)[C@@](O)(c3ccoc3)CC[C@]12O [rostafuroxin] |  |  |  |  |  |  |  | inhibitory activity against HCoV-OC43 (Human coronavirus OC43; [16]): did not exhibit any inhibitory activity; inhibitory activity against FIPV [5, 16]: did not exhibit any inhibitory activity |
| C[C@@H]1O[C@@H](O[C@H]2C[C@@H](O)[C@]3(CO)[C@H]4[C@H](O)C[C@]5(C)[C@@H](C6=CC(=O)OC6)CC[C@]5(O)[C@@H]4CC[C@]3(O)C2)[C@H](O)[C@H](O)[C@H]1O [Ouabain, ouabain] |  | 7.1 | 504 ± 11 | 6250 ± 2160 | 1560 | 4.0 | 71 ± 7 | maximum reduction of HCoV-OC43 viral yield (HCoV-OC43): 2–3 orders of magnitudes; concentration of maximum reduction of HCoV-OC43 viral yield (HCoV-OC43; [15]): 10 nM |
| CCN1CCc2c(c3cc(OC)c(OC)cc3c3cc(OC)ccc23)C1 [dbq29a] | 213 ± 62 | >46.9 |  | 4310 ± 1120 | 352 ± 77 | 12.3 |  | CC50 at 72 h ([4]; HCT-8 cells): > 10000 nM |
